Assays:
Type in all cases: in vivo
Monochoria vaginalis = assay: Test Example 1: herbicidal activity, application before weed generation in submerged conditions (symbol C); details: application herbicide amount 320 g/ha
Method in brief: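 Compound emulsion was diluted to a set herbicide amount and applied to the water surface on the sowing day, into submerged (4 cm) alluvial-soil pots sown with mixed weed seeds and transplanted 2.5-leaf rice. Pots were held in a 25–30 °C greenhouse, and weeds were scored 0–5 by herbicidal ratio after 3 weeks.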

[1] = tested on: Echinochloa oryzacola Vasing.; assay: Test Example 2: herbicidal activity, application during weed generation in submerged conditions (symbol A); details: Table 23; application herbicide amount 320 g/ha; grade 0-5 by criteria of Test Example 1
Method in brief: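 Paddy pot test, submerged (4 cm water), alluvial soil, mixed sowing; greenhouse 25–30° C. Emulsion formulation diluted to predetermined rate, applied onto floodwater at 1–2 leaf stage. Visual herbicidal rating at 3 wk post-treatment.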

Leptochloa chinensis = assay: Test Example 3: herbicidal effect by foliage application, Wagner pot (symbol D); details: application herbicide amount 320 g/ha
Method in brief: (§1)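 Foliar spray of water-diluted emulsion formulation at a predetermined herbicide amount onto 14-day-old plants in flooded alluvial soil (water depth 0.1–0.5 cm), greenhouse 25–30 °C; rice sown alongside. Scored 3 wk post-application on set criteria.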

Cyperus difformis = assay: Test Example 3: herbicidal effect by foliage application, Wagner pot (symbol E); details: application herbicide amount 320 g/ha
Method in brief: as §1

Digitaria ciliaris = assay: Test Example 4: herbicidal effect by soil treatment (symbol F); details: for F: Digitaria ciliaris, herbicidal effect grade: 320 g/ha
Method in brief: (§2)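 Seeds were sown in sterilized diluvial soil, covered with about 1.5 cm of soil, and the soil surface was sprayed with a water-diluted emulsion of the compound at a predetermined rate. Plants grew in a greenhouse at 25° C. to 30° C.; effects were scored visually 3 weeks after application.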

Abutilon theophrasti = assay: Test Example 4: herbicidal effect by soil treatment (symbol M); details: for M: Abutilon theophrasti, herbicidal effect grade: 320 g/ha
Method in brief: as §2

Amaranthus retroflexus = assay: Test Example 4: herbicidal effect by soil treatment (symbol N); details: for N: Amaranthus retroflexus, herbicidal effect grade: 320 g/ha
Method in brief: as §2

corn = assay: Test Example 4: effect on crop by soil treatment (symbol c); details: for c: corn, effect grade on crop: 320 g/ha
Method in brief: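 Steps: fill box with sterilized diluvial soil; sow seed spot-like; cover with ~1.5 cm soil; grow in greenhouse (25° C. to 30° C.).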

soybean = assay: Test Example 4: effect on crop by soil treatment (symbol d); details: for d: soybean, effect grade on crop: 320 g/ha
Method in brief: (§3)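 Crop seeds, among them rice, wheat, beet and rapeseed, were sown in sterilized diluvial soil and covered with about 1.5 cm of soil. Boxes were kept in a greenhouse at 25° C. to 30° C. for plant growth.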

beet = assay: Test Example 4: effect on crop by soil treatment (symbol f); details: for f: beet, effect grade on crop: 320 g/ha
Method in brief: as §3

Lolium multiflorum Lam. = assay: Test Example 5: herbicidal effect by foliage application, plastic box (symbol K); details: 320 g/ha, 3 weeks after application
Method in brief: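 After sowing into sterilized diluvial soil and growing two weeks under glass at 25° C. to 30° C., seedlings receive a uniform foliar spray of diluted emulsion. Damage is judged visually three weeks on.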

[2] = application herbicide amount 320 g/ha

SMILES | Herbicidal effect grade, C: Monochoria vaginalis (Monochoria vaginalis) | Herbicidal effect grade, A: Echinochloa oryzacola Vasing. [1] | herbicidal effect on D (Leptochloa chinensis), grade 0-5 (Leptochloa chinensis) | herbicidal effect on E, grade 0-5 (Cyperus difformis) | F: Digitaria ciliaris, herbicidal effect grade (Digitaria ciliaris) | M: Abutilon theophrasti, herbicidal effect grade (Abutilon theophrasti) | N: Amaranthus retroflexus, herbicidal effect grade (Amaranthus retroflexus) | c: corn, effect grade on crop (corn) | d: soybean, effect grade on crop (soybean) | f: beet, effect grade on crop (beet) | K: Lolium multiflorum Lam., herbicidal effect (criteria 0-5) (Lolium multiflorum Lam.) | further results
CON=C(C)CC1CC(OC(=O)COc2ccc(OC)cc2)=C(c2c(C)cc(C)cc2C)C1=O (centres unmarked) [1-069] | 2 (Herbicidal ratio of 20% or higher and lower than 40%) | 4 (Herbicidal ratio of 70% or higher and lower than 90%) | 5 (Herbicidal ratio of 90% or more (almost completely withered)) | 5 (Herbicidal ratio of 90% or more (almost completely withered)) |  |  |  |  |  |  |  | F (Digitaria ciliaris) herbicidal effect grade (Digitaria ciliaris; [2]): 5 (Herbicidal ratio of 90% or more (almost completely withered)); M (Abutilon theophrasti) herbicidal effect grade (Abutilon theophrasti; [2]): 4 (Herbicidal ratio of 70% or higher and lower than 90%); N (Amaranthus retroflexus) herbicidal effect grade (Amaranthus retroflexus; [2]): 4 (Herbicidal ratio of 70% or higher and lower than 90%); c (corn) effect on crop grade (corn; [2]): 5 (Herbicidal ratio of 90% or more (almost completely withered)); d (soybean) effect on crop grade (soybean; [2]): 0 (Herbicidal ratio of 5% or lower (almost no effect)); f (beet) effect on crop grade (beet; [2]): 0 (Herbicidal ratio of 5% or lower (almost no effect)); K: Lolium multiflorum Lam., herbicidal effect grade (Lolium multiflorum Lam.): 5 (Herbicidal ratio of 90% or more (almost completely withered))
CON=C(C)CC1CC(OC(=O)COc2ccc(C=O)cc2)=C(c2c(C)cc(C)cc2C)C1=O (centres unmarked) [1-079] | 3 (Herbicidal ratio of 40% or higher and lower than 70%) | 5 (Herbicidal ratio of 90% or more (almost completely withered)) | 5 (Herbicidal ratio of 90% or more (almost completely withered)) | 5 (Herbicidal ratio of 90% or more (almost completely withered)) | 5 (Herbicidal ratio of 90% or more (almost completely withered)) | 5 (Herbicidal ratio of 90% or more (almost completely withered)) | 4 (Herbicidal ratio of 70% or higher and lower than 90%) | 4 (Herbicidal ratio of 70% or higher and lower than 90%) | 1 (Herbicidal ratio of 5% or higher and lower than 20%) | 0 (Herbicidal ratio of 5% or lower (almost no effect)) | 5 (Herbicidal ratio of 90% or more (almost completely withered)) | 
CON=C(C)CC1CC(OC(=O)COc2ccc(C(C)=O)cc2)=C(c2c(C)cc(C)cc2C)C1=O (centres unmarked) [1-080] | 3 (Herbicidal ratio of 40% or higher and lower than 70%) | 4 (Herbicidal ratio of 70% or higher and lower than 90%) | 5 (Herbicidal ratio of 90% or more (almost completely withered)) | 5 (Herbicidal ratio of 90% or more (almost completely withered)) | 5 (Herbicidal ratio of 90% or more (almost completely withered)) | 4 (Herbicidal ratio of 70% or higher and lower than 90%) | 5 (Herbicidal ratio of 90% or more (almost completely withered)) | 4 (Herbicidal ratio of 70% or higher and lower than 90%) | 1 (Herbicidal ratio of 5% or higher and lower than 20%) | 0 (Herbicidal ratio of 5% or lower (almost no effect)) | 5 (Herbicidal ratio of 90% or more (almost completely withered)) | 
CON=C(C)CC1CC(OC(=O)C=Cc2ccco2)=C(c2c(C)cc(C)cc2C)C1=O (centres unmarked) [1-091] | 0 (Herbicidal ratio of 5% or lower (almost no effect)) | 5 (Herbicidal ratio of 90% or more (almost completely withered)) | 5 (Herbicidal ratio of 90% or more (almost completely withered)) | 5 (Herbicidal ratio of 90% or more (almost completely withered)) | 5 (Herbicidal ratio of 90% or more (almost completely withered)) | 1 (Herbicidal ratio of 5% or higher and lower than 20%) | 0 (Herbicidal ratio of 5% or lower (almost no effect)) | 5 (Herbicidal ratio of 90% or more (almost completely withered)) | 0 (Herbicidal ratio of 5% or lower (almost no effect)) | 0 (Herbicidal ratio of 5% or lower (almost no effect)) | 5 (Herbicidal ratio of 90% or more (almost completely withered)) | 
CON=C(C)CC1CC(OC(=O)COCC(F)(F)F)=C(c2c(C)cc(C)cc2C)C1=O (centres unmarked) [1-092] | 0 (Herbicidal ratio of 5% or lower (almost no effect)) | 5 (Herbicidal ratio of 90% or more (almost completely withered)) | 5 (Herbicidal ratio of 90% or more (almost completely withered)) | 5 (Herbicidal ratio of 90% or more (almost completely withered)) | 5 (Herbicidal ratio of 90% or more (almost completely withered)) | 3 (Herbicidal ratio of 40% or higher and lower than 70%) | 3 (Herbicidal ratio of 40% or higher and lower than 70%) | 5 (Herbicidal ratio of 90% or more (almost completely withered)) | 0 (Herbicidal ratio of 5% or lower (almost no effect)) | 0 (Herbicidal ratio of 5% or lower (almost no effect)) | 5 (Herbicidal ratio of 90% or more (almost completely withered)) | 
CC#CC(=O)OC1=C(c2c(C)cc(C)cc2C)C(=O)C(CC(C)=NOC)C1 (centres unmarked) [1-095] | 2 (Herbicidal ratio of 20% or higher and lower than 40%) | 5 (Herbicidal ratio of 90% or more (almost completely withered)) | 5 (Herbicidal ratio of 90% or more (almost completely withered)) | 5 (Herbicidal ratio of 90% or more (almost completely withered)) | 5 (Herbicidal ratio of 90% or more (almost completely withered)) | 4 (Herbicidal ratio of 70% or higher and lower than 90%) | 4 (Herbicidal ratio of 70% or higher and lower than 90%) | 5 (Herbicidal ratio of 90% or more (almost completely withered)) | 0 (Herbicidal ratio of 5% or lower (almost no effect)) | 0 (Herbicidal ratio of 5% or lower (almost no effect)) | 5 (Herbicidal ratio of 90% or more (almost completely withered)) | 
CON=C(CC1CC(O)=C(c2c(C)cc(Br)cc2C)C1=O)C(C)C (centres unmarked) [9-001] | 0 (Herbicidal ratio of 5% or lower (almost no effect)) | 4 (Herbicidal ratio of 70% or higher and lower than 90%) |  |  |  |  |  |  |  |  |  | D (Leptochloa chinensis) herbicidal effect grade (Leptochloa chinensis; Table 24): 4 (Herbicidal ratio of 70% or higher and lower than 90%); E herbicidal effect grade (Cyperus difformis; Table 24): 2 (Herbicidal ratio of 20% or higher and lower than 40%); Herbicidal effect grade, F: Digitaria ciliaris (Digitaria ciliaris; [2]): 4 (Herbicidal ratio of 70% or higher and lower than 90%); Herbicidal effect grade, M: Abutilon theophrasti (Abutilon theophrasti; [2]): 0 (Herbicidal ratio of 5% or lower (almost no effect)); Herbicidal effect grade, N: Amaranthus retroflexus (Amaranthus retroflexus; [2]): 1 (Herbicidal ratio of 5% or higher and lower than 20%); Effect on crop grade, c: corn (corn; [2]): 0 (Herbicidal ratio of 5% or lower (almost no effect)); Effect on crop grade, d: soybean (soybean; [2]): 0 (Herbicidal ratio of 5% or lower (almost no effect)); Effect on crop grade, f: beet (beet; [2]): 0 (Herbicidal ratio of 5% or lower (almost no effect)); K: Lolium multiflorum Lam., herbicidal effect grade (Lolium multiflorum Lam.): 5 (Herbicidal ratio of 90% or more (almost completely withered))

— patent publication US11000033B2, “Ketone or oxime compound, and herbicide” (NISSAN CHEMICAL CORPORATION, priority 2014, dated 2021)
